Measured values published in patent publication US4337272A, “Amino-ethanol derivatives” (Valeas S. R. L. Industria Chimica E Farmaceutica, priority 1975, dated 1982).
Where a name gives a salt, the structure may show the parent alone.

Key:
[1] = Acute toxicity LD50 (Litchfield and Wilcoxon); conditions: in vivo
[2] = system: bronchospasm induced by Acetilcholine in conscious guinea pig; test: Prevention of acetylcholine-induced bronchospasm in conscious guinea pig by inhalation (Armitage method)
[3] = system: Guinea Pig airway constriction; conditions: i.v.; literature (Duhault et al.); cited from earlier work

Compound | LD50 [1] [mg/kg] | time before sign of dispnea (mean) [2] [s] | active dose in the experimental bronchospasm according to Konzett-Rossler [3] [mg/kg]
CC(C)NCC(O)c1cc(O)cc(O)c1 (centres unmarked) [Orciprenaline, reference compound] | 380 | 502 ± 67 | 
Cn1c(=O)c2[nH]cnc2n(C)c1=O [Theophylline] |  |  | 25
COc1ccc(CC(C)NCC(O)c2cc(N)cc(CO)c2)cc1 (centres unmarked) [VAL 5000/PM, 1-(5-amino-3 hydroxymethyl) phenyl-2-(1 p-methoxyphenyl-2-propylamino)ethanol dihydrochloride] | 295 | 475 ± 60 | 
